Six molecules from patent publication US20250243227A1, “IDURONIDASE STABILIZERS AND USES THEREOF” (Academia Sinica, priority 2022, published 2025) can be followed below.

Series [1] deals with recombinant human α-IDUA (rh-α-IDUA, Aldurazyme®) (Homo sapiens (Human), UniProt P35475). The series can be described thus: IDUA inhibition assay (fluorogenic substrate 4MU-IdoA). It counts as biochemical. Conditions: for IC50: apparent IC50 against rh-α-IDUA, 4-MU-IdoA substrate, pH 3.5. Here is the method: Compounds were mixed with recombinant human α-IDUA (rh-α-IDUA, Aldurazyme®, 1.2 nM as the final concentration) and the fluorogenic substrate, […] (4MU-IdoA; Cayman), at a final concentration of 100 μM in pH 3.5 buffer (50 mM NaOAc and 150 mM NaCl), then incubated in a 384-well microplate at 37° C. for 30 min. Stop solution (500 mM Na2CO3, pH 10.8) was added and fluorescence was read on a CLARIOstar® microplate reader (BMG LABTECH) at 355 nm excitation and 460 nm emission. Raw fluorescence counts were background subtracted, as defined by counts from substrate solution only. Inhibitory screening was performed and the active compounds were selected and further tested at lower concentration to determine their IC50 values and Ki values.
Sequence of recombinant human α-IDUA (rh-α-IDUA, Aldurazyme®) (P35475 26-653): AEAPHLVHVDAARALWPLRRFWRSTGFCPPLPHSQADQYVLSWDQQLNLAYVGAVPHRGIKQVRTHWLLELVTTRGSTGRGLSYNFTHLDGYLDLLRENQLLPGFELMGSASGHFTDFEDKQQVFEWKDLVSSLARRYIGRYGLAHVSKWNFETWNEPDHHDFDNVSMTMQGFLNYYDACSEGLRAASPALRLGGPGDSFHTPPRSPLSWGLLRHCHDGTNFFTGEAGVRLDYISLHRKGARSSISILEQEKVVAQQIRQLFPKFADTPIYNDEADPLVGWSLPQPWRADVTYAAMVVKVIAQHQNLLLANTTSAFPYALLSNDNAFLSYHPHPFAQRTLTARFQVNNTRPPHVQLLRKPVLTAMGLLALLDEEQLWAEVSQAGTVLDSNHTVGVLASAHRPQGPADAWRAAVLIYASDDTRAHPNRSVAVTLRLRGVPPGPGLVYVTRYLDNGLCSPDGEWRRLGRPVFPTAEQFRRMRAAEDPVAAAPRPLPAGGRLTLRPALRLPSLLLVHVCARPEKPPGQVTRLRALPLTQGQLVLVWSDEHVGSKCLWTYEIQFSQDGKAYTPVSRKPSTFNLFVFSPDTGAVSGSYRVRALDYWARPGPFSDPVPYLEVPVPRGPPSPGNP
The compounds of Example 1 were evaluated on their inhibitory potential against rh-α-IDUA, and their apparent IC50 values were determined by using the fluorogenic substrates 4-methylumbelliferyl-α-iduronide (4-MU-IdoA) and results are shown in Table 1.

For series [2], the target named is T1, rh-α-IDUA in GM01391 fibroblasts (Homo sapiens (Human), UniProt P35475). The series can be described thus: Cell-based rh-α-IDUA stabilization: intracellular IDUA activity in GM01391 fibroblasts. Conditions: for enhancement of IDUA activity versus rh-α-IDUA alone / change of IDUA activity on co-treatment versus rh-α-IDUA alone: rh-α-IDUA 0.1 nM + compound 100 μM (100 aM/100 M [sic] in the source). Here is the method:
(§1) FIG. 1. The cell-based rh-α-IDUA stabilization study of the compounds of Example 1/rh-α-IDUA in GM01391 fibroblasts. (A) Preliminary cell-based screening of compounds of Example 1 by the co-treatment of rh-α-IDUA (0.1 nM) with 12 or 27b ([…]); (B) A dose-dependent experiment for 12, 27a, or 27b with 1 nM of rh-α-IDUA; (C) Co-treatment of 12 and rh-α-IDUA (1 or 0.1 nM) on IDUA activity; and (D) 12/rh-α-IDUA co-treatment on HS reduction in cells. Each bar represents the mean±SD of three determinations. *P<0.05; **P<0.01; ***P<0.001 compared to rh-α-IDUA alone, as determined by one-way ANOVA with Dunnett post-hoc analysis.
To this purpose, GM01391 fibroblasts were treated with a combination of rh-α-IDUA (0.1 nM) and compounds 12, and 27a-c ([…]); or with rh-α-IDUA for 1 day, followed by a 1-day wash-out. To measure the intracellular IDUA activity, the corresponding cells were harvested and lysed before the incubation with the fluorogenic substrate. Results are illustrated in FIG. 1.

Series [3] has as its system heparan sulfate (HS) in GM01391 fibroblasts. The series can be described thus: Cell-based HS analysis (LC-MS/MS of HS disaccharides) in GM01391 fibroblasts. Conditions: co-treatment with rh-α-IDUA. Details: species or system human. On the procedure: as §1
Generally, accumulation of GAGs could be observed in MPS patients due to the dysfunction of any lysosomal enzymes involved in the degradation of GAGs including IDUA associated with MPSI, which means the enhanced efficacy of protein drugs by the co-treatment with protein stabilizers could be evaluated more directly by the improved reduction of GAGs than the increased activity of MPS-related lysosomal enzymes. As a result, a robust method for quantitative detection of HS, one of the types of GAGs excessively stored in MPS I patients, was established by us for the evaluation of potential therapeutic effect of compound 12 in MPSI. […]

For series [4], the target named is rh-α-IDUA in GM02846 fibroblasts (Homo sapiens (Human), UniProt P35475). The series can be described thus: Cell-based rh-α-IDUA stabilization: IDUA activity in GM02846 fibroblasts. Conditions: co-treatment with rh-α-IDUA. An excerpt: (§2) FIG. 2. The cell-based rh-α-IDUA stabilization study of 12/rh-α-IDUA in GM02846 fibroblasts. (A) IDUA activity, and (B) the reduction of HS; Each bar represents the mean±SD of three determinations. *P<0.05; **P<0.01; ***P<0.001 compared to rh-α-IDUA alone, as determined by one-way ANOVA with Dunnett post-hoc analysis.
Sequence of rh-α-IDUA in GM02846 fibroblasts (P35475 26-653): as above
(§3) HS of the in situ treated fibroblasts were extracted and chemically cleaved to generate HS disaccharides as the released biomarker, which could be quantitatively measured via LC-MS/MS with a synthesized novel disaccharide by us as the internal standard. With this established method for cell-based HS analysis, the qualified CIdoA analogue 12 was further evaluated.

The target of series [5] is T1, rh-α-IDUA in GM01391 fibroblasts. The series can be described thus: Cell-based rh-α-IDUA stabilization: intracellular IDUA activity in GM01391 fibroblasts. Conditions: co-treatment with rh-α-IDUA; 1-day treatment followed by 8-day wash-out; data not shown.
The subject of series [6] is heparan sulfate (HS) in GM02846 fibroblasts. The series can be described thus: Cell-based HS analysis (LC-MS/MS of HS disaccharides) in GM02846 fibroblasts. Set-up: species or system human. Conditions: combination with rh-α-IDUA.
From the text: as §2
Generally, accumulation of GAGs could be observed in MPS patients due to the dysfunction of any lysosomal enzymes involved in the degradation of GAGs including IDUA associated with MPSI, which means the enhanced efficacy of protein drugs by the co-treatment with protein stabilizers could be evaluated more directly by the improved reduction of GAGs than the increased activity of MPS-related lysosomal enzymes. As a result, a robust method for quantitative detection of HS, one of the types of GAGs excessively stored in MPS I patients, was established by us for the evaluation of potential therapeutic effect of compound 12 in MPSI.
as §3

Where [7] appears, read: rh-α-IDUA 1 nM + compound 500 μM.

T1 sequence (P35475 26-653): as above

What is called Ki is a measure of affinity in units of concentration, obtained from inhibition or displacement. One may read the IC50 as the concentration that inhibits the measured activity by half. Regarding `NCC[C@@H]1O[C@@H](C(=O)O)[C@@H](O)[C@H](O)[C@H]1O` [Compound 12], the Ki in series [1] (against rh-α-IDUA) stood at 4 µM. Further, the IC50 in series [1] turned out to be 6.7 µM. The “enhancement of IDUA activity versus rh-α-IDUA alone” value in series [2] (1 day, 1-day wash-out) amounted to 1.4 fold. Further, in series [2] (setting [7]), the “IDUA activity with combined treatment versus rh-α-IDUA alone” value is “three”. Further, in series [2] (rh-α-IDUA 1 or 0.1 nM), the “IDUA activity, dose-dependence of co-treatment versus rh-α-IDUA alone” value is on record as “enhanced by the 12/rh-α-IDUA co-treatment in a dose-dependent manner”. In addition, the “reduction of accumulated HS versus rh-α-IDUA alone” value in series [3] is on record as “statistically significantly improved reduction”. Further, in series [4], the “rh-α-IDUA activity on co-treatment” value is “dose-dependently enhanced”. In addition, the “time course of enhancement of IDUA activity” value in series [5] is “could be maintained”. Besides, the “reduction of HS versus rh-α-IDUA alone” value in series [6] is listed as “significant reduction of HS”.
As to `NCC[C@@H]1N[C@@H](C(=O)O)[C@@H](O)[C@H](O)[C@H]1O` [Compound 23], the “IC50 (μM), NI = no inhibition at 250 μM” value in series [1] (250 μM compound, rh-α-IDUA) is recorded as “NI^a (NI refers to less than 10% inhibition at 250 μM.)”.
As to `O=C(Cc1ccc(OP(=O)(O)O)cc1)NCC[C@@H]1O[C@@H](C(=O)O)[C@@H](O)[C@H](O)[C@H]1O` [Compound 27a], in series [1], the IC50 amounted to 5.4 ± 0.5 µM. In addition, the “change of IDUA activity on co-treatment versus rh-α-IDUA alone” value in series [2] (1 day, 1-day wash-out) is “barely improved”. Besides, in series [2] (setting [7]), the “IDUA activity on co-treatment at 500 μM” value is reported as “suppressed”.
Consider `O=C(Cc1cccc(OP(=O)(O)O)c1)NCC[C@@H]1O[C@@H](C(=O)O)[C@@H](O)[C@H](O)[C@H]1O` [Compound 27b], for which, in series [1], the IC50 turned out to be 4 ± 0.5 µM. In addition, the “enhancement of IDUA activity versus rh-α-IDUA alone” value in series [2] (1 day, 1-day wash-out) amounted to 1.6 fold. Also, the “enhancement of IDUA activity at 500 μM” value in series [2] (setting [7]) came out at 1.7 fold.
Turning to `O=C(Cc1ccccc1OP(=O)(O)O)NCC[C@@H]1O[C@@H](C(=O)O)[C@@H](O)[C@H](O)[C@H]1O` [Compound 27c], in series [1], the IC50 was 1 µM. Moreover, the “change of IDUA activity on co-treatment versus rh-α-IDUA alone” value in series [2] (1 day, 1-day wash-out) is “moderate reduction of IDUA activity”.

B1: rh-α-IDUA: recombinant human α-iduronidase, enzyme replacement protein (Aldurazyme®) (protein, UniProt P35475 28-653, looked up)
Alpha-L-iduronidase: APHLVHVDAARALWPLRRFWRSTGFCPPLPHSQADQYVLSWDQQLNLAYVGAVPHRGIKQVRTHWLLELVTTRGSTGRGLSYNFTHLDGYLDLLRENQLLPGFELMGSASGHFTDFEDKQQVFEWKDLVSSLARRYIGRYGLAHVSKWNFETWNEPDHHDFDNVSMTMQGFLNYYDACSEGLRAASPALRLGGPGDSFHTPPRSPLSWGLLRHCHDGTNFFTGEAGVRLDYISLHRKGARSSISILEQEKVVAQQIRQLFPKFADTPIYNDEADPLVGWSLPQPWRADVTYAAMVVKVIAQHQNLLLANTTSAFPYALLSNDNAFLSYHPHPFAQRTLTARFQVNNTRPPHVQLLRKPVLTAMGLLALLDEEQLWAEVSQAGTVLDSNHTVGVLASAHRPQGPADAWRAAVLIYASDDTRAHPNRSVAVTLRLRGVPPGPGLVYVTRYLDNGLCSPDGEWRRLGRPVFPTAEQFRRMRAAEDPVAAAPRPLPAGGRLTLRPALRLPSLLLVHVCARPEKPPGQVTRLRALPLTQGQLVLVWSDEHVGSKCLWTYEIQFSQDGKAYTPVSRKPSTFNLFVFSPDTGAVSGSYRVRALDYWARPGPFSDPVPYLEVPVPRGPPSPGNP
B1: the “IDUA activity after treatment with rh-α-IDUA alone” value in series [2] (rh-α-IDUA 0.1 nM, 1 day, 1-day wash-out) was “dramatically increased”.
